Reference: patent US20170260169A1, “INHIBITORS FOR STEROID RESPONSE ELEMENTS AND RNA POLYMERASE II AND RELATED METHODS” (priority 2007, published 2017)
Read-outs that look alike come from different tables or passages of the source. One block for each compound: values may come before it.

Columns and labels:
LNCaP cells = assay: Confocal microscopy of fluorescein polyamide uptake in LNCaP cells; assay type: cell-based; conditions: for nuclear localization in LNCaP cells: 2 μM, 24 hr
Method: Cells were plated in 35 mm optical dishes (MatTek) and dosed with polyamide 86 at 1 μM for 24 hours with or without 1 μM MG132. Cells were then washed with PBS and imaged on a confocal microscope (Exciter, Zeiss) using a 63× oil immersion lens. Confocal imaging was performed following established protocols (33).
To determine the biological activity of 78 in LNCaP cells we first looked for evidence nuclear localization using fluorescein analog 90. The fluorescein analog of 77, compound 88, was used as benchmark.

[1] = Liver uptake of fluorescein-polyamide conjugates in mice; assay type: in vivo; conditions: 50 nmol (~3 mg/kg), 24 hours
Method: Male C57BL/6J mice (n=2 per group) were injected with 50 nmol (˜3 mg/kg) of 88-91 and then sacrificed 24 hours later. Tissue was excised and processed as previously described (20). The tissues were excised and fixed in 10% Neutral Buffered Formalin for 48 hours. They were subsequently cryoprotected in 15% and 30% aqueous sucrose solution (w/v) for 24 hours each, embedded in a medium for frozen sections (Sakura) and frozen on dry ice. Fluorescence intensity in liver tissue was assessed by laser confocal microscopy in 10 μm thick sections on slides mounted with a ProLong antifade reagent (Invitrogen).

[2] = Serum circulation after subcutaneous injection in C57BL/6 mice; assay type: in vivo; conditions: 10 mg/kg, male C57BL/6J
Method: To investigate if polyamide 77 could be detected in peripheral blood after SC injections, 120 nmol of 77 (in 5% DMSO/PBS) was injected into the right flank of four C57BL/6 mice. Blood was collected from anesthetized mice via retroorbital collection at 5 minutes, 4 h, and 12 h after injection, then processed by methods previously described and analyzed by HPLC (35). For measurement of serum PSA (KLK3) and uric acid, blood was collected from anesthetized mice via retroorbital collection at experimental endpoint and serum was separated from blood by centrifugation. Serum PSA (KLK3) was measured by ELISA (R&D systems) according to manufacturer's instructions. Uric acid was measured as described (36).
We synthesized four structurally related polyamides (FIG. 28) that have an identical Py-Im sequence ImPyPyPy-γ-ImPyPyPy-NHMe-IPA.

[3] = Escalating single dose subcutaneous injections, male C57BL/6J mice (weight, histopathology, serum); conditions: for weight loss after single SC dose: 1, 3, 10 mg/kg, 9 days
[4] = system: PSA mRNA expression in LNCaP cells; assay: DHT-induced PSA mRNA in LNCaP cells, quantitative real-time RT-PCR; assay type: cell-based; conditions: for inhibition of DHT-induced PSA expression: up to, at 10 μM, 1 nM DHT
[5] = system: FKBP5 mRNA expression in LNCaP cells; assay: DHT-induced FKBP5 mRNA in LNCaP cells; assay type: cell-based
[6] = system: transcripts in DHT-stimulated LNCaP cells; assay: Gene expression with Affymetrix Human Genome U133 Plus 2.0 arrays, DHT-stimulated LNCaP cells; assay type: cell-based
Method: LNCaP cells were plated in 12-well plates at a density of 80-100×10^3 cells per well. Media, polyamide treatments, and time courses were the same as described above. Bicalutamide was added 2 h before DHT stimulation. RNA was isolated as described in ref. 21. From this point, experiments were carried out at the Millard and Muriel Jacobs Gene Expression Facility at the California Institute of Technology. Labeled mRNA was hybridized to Affymetrix high-density Human Genome U133 Plus 2.0 arrays according to established protocols. Gene expression was analyzed by using Resolver (Rosetta Biosoftware, Seattle, Wash.). Data were uploaded to the Gene Expression Omnibus repository (accession no. GSE7708).
Global effects of polyamides 1 and 2 and bicalutamide on gene expression in DHT-stimulated LNCaP cells were monitored with Affymetrix (Santa Clara, Calif.) high-density Human Genome U133 Plus 2.0 arrays, which interrogate >50,000 transcripts.

[7] = system: PSA mRNA expression in LNAR cells; assay: PSA mRNA expression in LNAR cells (hormone refractory, over-express AR); assay type: cell-based
[8] = Multiple-dose subcutaneous injections, male C57BL/6J mice; assay type: in vivo; conditions: 1 mg/kg SC every 3 days
Method: In addition to single dose injections, the effects of repeated dosing of polyamides 77-80 in mice were examined. In this experiment, 8 week-old male C57BL/6J mice (n=3 per dosing group) were treated with 1 mg/kg of polyamides 77-80 by subcutaneous injection every 3 days, for a cycle of three injections and then sacrificed two days after the final injection (FIG. 31A). As in the single dosing experiments, two mice per group were subjected to histopathology analysis and all blood samples were sent for analysis. […] These mice were promptly euthanized.
Serum from treated animals were collected by retroorbital bleeding. […] All samples were sent for analysis at IDEXX-RADIL.

[9] = Liver microsomal stability, human; conditions: 1 μM, Human, 1 hr at 37° C., 1 mg/ml microsomes
[10] = Liver microsomal stability, mouse; conditions: 1 μM, Mouse, 1 hr at 37° C., 1 mg/ml microsomes
[11] = 10 μM, + DHT, relative to DHT-induced controls, p ≦ 0.01
[12] = relative to DHT-induced controls, + DHT

SMILES: CC(=O)N[C@H](CCNC(=O)c1cc(NC(=O)c2cc(NC(=O)c3cc(NC(=O)c4nccn4C)cn3C)cn2C)cn1C)C(=O)Nc1cn(C)c(C(=O)Nc2cc(C(=O)Nc3cc(C(=O)Nc4cc(C(=O)NCCCN(C)CCCNC(=S)Nc5ccc(-c6c7ccc(=O)cc-7oc7cc(O)ccc67)c(C(=O)O)c5)n(C)c4)n(C)c3)n(C)c2)n1 [Polyamide 90]
- nuclear localization in LNCaP cells (LNCaP cells): robust nuclear localization
- nuclear fluorescence in liver sections [1]: less nuclear fluorescence in liver sections than the other FITC-polyamide conjugates

SMILES: Cn1cc2cc1C(=O)NCCCC(=O)Nc1cn(C)c(n1)C(=O)Nc1cc(n(C)c1)C(=O)Nc1cc(n(C)c1)C(=O)Nc1cc(n(C)c1)C(=O)NCC[C@@H](N)C(=O)Nc1cn(C)c(n1)C(=O)Nc1cc(n(C)c1)C(=O)Nc1cc(n(C)c1)C(=O)N2 [Polyamide 87]
- bioavailability in serum after subcutaneous injection [2]: bioavailable after subcutaneous injection at 10 mg/kg
- weight loss after single SC dose [3]: did not cause significant weight loss
- overall toxicity / organ damage ([3]; single SC 1, 3, 10 mg/kg): moderate damage to both the liver and kidney at 3 and 10 mg/kg
- serum liver markers AST, ALT, total bilirubin ([3]; single SC dose): caused levels of ALT and AST to increase in a dose dependent manner

SMILES: CN(CCCNC(=O)c1cc(NC(=O)c2cc(NC(=O)c3cc(NC(=O)c4nc(NC(=O)C[C@H](CNC(=O)c5cc(NC(=O)c6cc(NC(=O)c7cc(NC(=O)c8nccn8C)cn7C)cn6C)cn5C)NC(=O)OCc5ccccc5)cn4C)cn3C)cn2C)cn1C)CCCNC(=S)Nc1ccc(-c2c3ccc(=O)cc-3oc3cc(O)ccc23)c(C(=O)O)c1 [Polyamide 86]
- cellular uptake with MG132 (LNCaP cells; 1 μM, 24 hours, 1 μM MG132): did not affect the cellular uptake

- IC50 ([4]; Homo sapiens, LNCaP + DHT, read-out: IC50 for inhibition of PSA mRNA expression): 900 nM
- IC50 ([7]; LNAR + DHT, read-out: IC50 for inhibition of PSA mRNA expression): > 1000 µM
- IC50 ([7]; LNAR − DHT, bicalutamide induces PSA mRNA in LNAR cells, read-out: IC50 for inhibition of PSA mRNA expression (value in parentheses)): 3.5 µM
SMILES: CC(O)(CS(=O)(=O)c1ccc(F)cc1)C(=O)Nc1ccc(C#N)c(C(F)(F)F)c1 (stereo not shown) [bicalutamide, reference compound]
- inhibition of DHT-induced PSA expression [4]: approximately 70%
- inhibition of DHT-induced PSA expression ([4]; listed as Bicalutamide): ≈ 70%
- inhibition of DHT-induced expression of FKBP5 [5]: ~95%
- Number of transcripts down-regulated (fold change ≦ −2.0) [6, 11]: 602
- Number of transcripts down-regulated (fold change ≦ −4.0) [6, 11]: 133
- Number of transcripts up-regulated (fold change ≧ 2.0) [6, 11]: 611
- Number of transcripts up-regulated (fold change ≧ 4.0) [6, 11]: 96
- number of transcripts affected by at least 2-fold ([6]; 10 μM, P≦0.01, vs DHT-induced controls): 1,213
- number of the 88 DHT-repressed transcripts derepressed at least 2-fold ([6]; P≦0.01): 87
- number of the 199 DHT-induced transcripts inhibited at least 2-fold ([6]; P≦0.01): 186
- Fold-change of FKBP5 [6, 12]: −36.4
- Fold-change of KLK2 [6, 12]: −14.7
- Fold-change of KLK3 (PSA) [6, 12]: −3.2
- Fold-change of TMPRSS2 [6, 12]: −4.1

SMILES: CN(CCCNC(=O)c1cc(NC(=O)c2cc(NC(=O)c3cc(NC(=O)c4nc(NC(=O)[C@H](N)CCNC(=O)c5cc(NC(=O)c6cc(NC(=O)c7cc(NC(=O)c8nccn8C)cn7C)cn6C)cn5C)cn4C)cn3C)cn2C)cn1C)CCCNC(=S)Nc1ccc(-c2c3ccc(=O)cc-3oc3cc(O)ccc23)c(C(=O)O)c1 [Polyamide 88]
- nuclear localization in LNCaP cells (LNCaP cells): robust nuclear localization

- Mean remaining parent NADPH-free [9]: 100%
- Mean remaining parent with NADPH [9]: 91.9%
- Mean remaining parent NADPH-free [10]: 100%
- Mean remaining parent with NADPH [10]: 92.4%
- weight loss after single SC dose [3]: significant weight loss only at 10 mg/kg
- kidney histopathology ([3]; single SC 3 mg/kg): Moderate atypical tubular regeneration
- serum kidney markers creatinine and BUN ([3]; single SC dose): elevated BUN at 10 mg/kg
SMILES: CN(CCCNC(=O)c1cccc(C(=O)O)c1)CCCNC(=O)c1cc(NC(=O)c2cc(NC(=O)c3cc(NC(=O)c4nc(NC(=O)C[C@@H](N)CNC(=O)c5cc(NC(=O)c6cc(NC(=O)c7cc(NC(=O)c8nccn8C)cn7C)cn6C)cn5C)cn4C)cn3C)cn2C)cn1C [Polyamide 79, ImPyPyPy-3-(R)H^2Nγ-ImPyPyPy-NHMe-IPA]
- liver and kidney histopathology [8]: mild multifocal hepatocellular necrosis and apoptosis in the liver and mild variable tubular attenuation, karyomegaly and epithelial necrosis and apoptosis in the kidney
- liver and kidney serum markers [8]: elevated AST and ALT
- weight and physical morbidity ([8]; three injections): no loss in weight or physical morbidities
- liver histopathology ([3]; single SC 3 mg/kg): Mild hepatocellular necrosis and apoptosis
- liver histopathology ([3]; single SC 10 mg/kg): diffuse hepatocellular necrosis and apoptosis
- spleen histopathology ([3]; single SC 10 mg/kg): Mild lymphoid apoptosis in the white pulp of the spleen
- serum liver markers AST, ALT, total bilirubin ([3]; single SC dose): severe elevation of AST, ALT, and total bilirubin at 10 mg/kg and to a lesser extent at 3 mg/kg

SMILES: CC(=O)N[C@@H](CNC(=O)c1cc(NC(=O)c2cc(NC(=O)c3cc(NC(=O)c4nccn4C)cn3C)cn2C)cn1C)CC(=O)Nc1cn(C)c(C(=O)Nc2cc(C(=O)Nc3cc(C(=O)Nc4cc(C(=O)NCCCN(C)CCCNC(=S)Nc5ccc(-c6c7ccc(=O)cc-7oc7cc(O)ccc67)c(C(=O)O)c5)n(C)c4)n(C)c3)n(C)c2)n1 [Polyamide 91]
- nuclear fluorescence in liver sections [1]: the most intense nuclear fluorescence in liver sections
